Reference: PubChem BioAssay AID1963983 (Molecular Pharmacology Branch, DTP, NCI, 2024)

System: 186277-243-T-J2-PDC multi-cell spheroid viability
Assay: Anticancer human tumor 186277-243-T-J2-PDC patient-derived colon adenocarcinoma cell line growth inhibition [PI3K]
Details: for IC50: curve of first compound; for viability, T/C: stronger effect = lower value
How it was run: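 Tumor cells grown as multi-cell spheroids with HUVEC endothelial cells and MSC fibroblast-like stroma were treated with targeted agents combined with inavolisib, alpelisib, duvelisib or copanlisib. Doses fell in half-log steps from near clinical Cmax, else from 10 microM. Viability was measured.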

[1] = second compound 0.0316 µM, first compound 0.000316 µM
[2] = second compound 0.0316 µM, first compound 0.001 µM
[3] = second compound 0.0316 µM, first compound 0.00316 µM
[4] = second compound 0.0316 µM, first compound 0.01 µM
[5] = second compound 0.0316 µM, first compound 0.0316 µM
[6] = second compound 0.0316 µM, first compound 0.1 µM
[7] = second compound 0.1 µM, first compound 0.000316 µM
[8] = second compound 0.1 µM, first compound 0.001 µM
[9] = second compound 0.1 µM, first compound 0.00316 µM
[10] = second compound 0.1 µM, first compound 0.01 µM
[11] = second compound 0.1 µM, first compound 0.0316 µM
[12] = second compound 0.1 µM, first compound 0.1 µM
[13] = second compound 0.316 µM, first compound 0.000316 µM
[14] = second compound 0.316 µM, first compound 0.001 µM
[15] = second compound 0.316 µM, first compound 0.00316 µM
[16] = second compound 0.316 µM, first compound 0.01 µM
[17] = second compound 0.316 µM, first compound 0.0316 µM
[18] = second compound 0.316 µM, first compound 0.1 µM
[19] = second compound 1 µM, first compound 0.000316 µM
[20] = second compound 1 µM, first compound 0.001 µM
[21] = second compound 1 µM, first compound 0.00316 µM
[22] = second compound 1 µM, first compound 0.01 µM
[23] = second compound 1 µM, first compound 0.0316 µM
[24] = second compound 1 µM, first compound 0.1 µM
[25] = second compound 3.16 µM, first compound 0.0316 µM
[26] = second compound 3.16 µM, first compound 0.1 µM
[27] = second compound 10 µM, first compound 0.0316 µM
[28] = second compound 10 µM, first compound 0.1 µM
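Note: spheroids exposed to compounds for seven days before viability reading.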
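Throughout, for viability, T/C: 100% = DMSO vehicle control viability.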

With `Cn1ncnc1[C@H]1c2n[nH]c(=O)c3cc(F)cc(c23)N[C@@H]1c1ccc(F)cc1` + COc1c(OCCCN2CCOCC2)ccc2c3n(c(=NC(=O)c4cnc(N)nc4)nc12)CCN3 the IC50 (second compound 0.00316 µM) was over 100 nM, the IC50 (second compound 0.01 µM) was over 100 nM and the IC50 (second compound 0.0316 µM) was 21.4 nM. It also gave an IC50 (second compound 0.1 µM) of under 0.316 nM, an IC50 (second compound 0.316 µM) of under 0.316 nM and an IC50 (second compound 1 µM) of under 0.316 nM. It also gave a viability, T/C (second compound 0.00316 µM, first compound 0.000316 µM) of 102%, a viability, T/C (second compound 0.00316 µM, first compound 0.001 µM) of 100% and a viability, T/C (second compound 0.00316 µM, first compound 0.00316 µM) of 105%. It also gave a viability, T/C (second compound 0.00316 µM, first compound 0.01 µM) of 80.9%, a viability, T/C (second compound 0.00316 µM, first compound 0.0316 µM) of 88% and a viability, T/C (second compound 0.00316 µM, first compound 0.1 µM) of 79.5%. It also gave a viability, T/C (second compound 0.01 µM, first compound 0.000316 µM) of 93.8%, a viability, T/C (second compound 0.01 µM, first compound 0.001 µM) of 96% and a viability, T/C (second compound 0.01 µM, first compound 0.00316 µM) of 83.6%. It also gave a viability, T/C (second compound 0.01 µM, first compound 0.01 µM) of 98.3%, a viability, T/C (second compound 0.01 µM, first compound 0.0316 µM) of 85.5% and a viability, T/C (second compound 0.01 µM, first compound 0.1 µM) of 68.7%. The viability, T/C [1] was 66%, the viability, T/C [2] was 63.8% and the viability, T/C [3] was 58.9%. For the same compound, the viability, T/C [4] was 54.6%, the viability, T/C [5] was 47.2% and the viability, T/C [6] was 40.8%. For the same compound, the viability, T/C [7] was 22.2%, the viability, T/C [8] was 15.9% and the viability, T/C [9] was 16.7%. It also gave a viability, T/C [10] of 13%, a viability, T/C [11] of 14.1% and a viability, T/C [12] of 9.78%. It also gave a viability, T/C [13] of 4.1%, a viability, T/C [14] of 7.07% and a viability, T/C [15] of 5.01%. The viability, T/C [16] was 6.2%, the viability, T/C [17] was 4.54% and the viability, T/C [18] was 4.17%. The viability, T/C [19] was 3.72%, the viability, T/C [20] was 4.99% and the viability, T/C [21] was 1.76%. The viability, T/C [22] was 1.73%, the viability, T/C [23] was 3.49% and the viability, T/C [24] was 2.04%.
`CC(C)NCC(C(=O)N1CCN(c2ncnc3c2C(C)CC3O)CC1)c1ccc(Cl)cc1` (stereo unspecified) + Cc1nc(NC(=O)N2CCCC2C(N)=O)sc1-c1ccnc(C(C)(C)C(F)(F)F)c1 was tested, and the IC50 (second compound 0.0316 µM) was 893 nM, the IC50 (second compound 0.1 µM) was 603 nM and the IC50 (second compound 0.316 µM) was 544 nM. It also gave an IC50 (second compound 1 µM) of 262 nM, an IC50 (second compound 3.16 µM) of 59.7 nM and an IC50 (second compound 10 µM) of under 31.6 nM. For the same compound, the viability, T/C [5] was 115%, the viability, T/C [6] was 93% and the viability, T/C (second compound 0.0316 µM, first compound 0.316 µM) was 59%. The viability, T/C (second compound 0.0316 µM, first compound 1 µM) was 54.1%, the viability, T/C (second compound 0.0316 µM, first compound 3.16 µM) was 31.6% and the viability, T/C (second compound 0.0316 µM, first compound 10 µM) was 22.5%. It also gave a viability, T/C [11] of 90.3%, a viability, T/C [12] of 92.4% and a viability, T/C (second compound 0.1 µM, first compound 0.316 µM) of 58.6%. It also gave a viability, T/C (second compound 0.1 µM, first compound 1 µM) of 43.9%, a viability, T/C (second compound 0.1 µM, first compound 3.16 µM) of 23.5% and a viability, T/C (second compound 0.1 µM, first compound 10 µM) of 23.9%. For the same compound, the viability, T/C [17] was 94.5%, the viability, T/C [18] was 80.2% and the viability, T/C (second compound 0.316 µM, first compound 0.316 µM) was 64%. For the same compound, the viability, T/C (second compound 0.316 µM, first compound 1 µM) was 36.5%, the viability, T/C (second compound 0.316 µM, first compound 3.16 µM) was 18% and the viability, T/C (second compound 0.316 µM, first compound 10 µM) was 14.3%. For the same compound, the viability, T/C [23] was 92.5%, the viability, T/C [24] was 74.8% and the viability, T/C (second compound 1 µM, first compound 0.316 µM) was 45.4%. The viability, T/C (second compound 1 µM, first compound 1 µM) was 24.7%, the viability, T/C (second compound 1 µM, first compound 3.16 µM) was 21.4% and the viability, T/C (second compound 1 µM, first compound 10 µM) was 16.3%. It also gave a viability, T/C [25] of 56.3%, a viability, T/C [26] of 47% and a viability, T/C (second compound 3.16 µM, first compound 0.316 µM) of 25.3%. The viability, T/C (second compound 3.16 µM, first compound 1 µM) was 20.3%, the viability, T/C (second compound 3.16 µM, first compound 3.16 µM) was 10% and the viability, T/C (second compound 3.16 µM, first compound 10 µM) was 5.7%. For the same compound, the viability, T/C [27] was 14.2%, the viability, T/C [28] was 13.1% and the viability, T/C (second compound 10 µM, first compound 0.316 µM) was 7.49%. The viability, T/C (second compound 10 µM, first compound 1 µM) was 9.25%, the viability, T/C (second compound 10 µM, first compound 3.16 µM) was 5.71% and the viability, T/C (second compound 10 µM, first compound 10 µM) was 3.29%.
Work on `Cn1ncnc1[C@H]1c2n[nH]c(=O)c3cc(F)cc(c23)N[C@@H]1c1ccc(F)cc1` + CC(Nc1ncnc2nc[nH]c12)c1cc2cccc(Cl)c2c(=O)n1-c1ccccc1 yielded an IC50 (second compound 0.0316 µM) of over 100 nM, an IC50 (second compound 0.1 µM) of over 100 nM and an IC50 (second compound 0.316 µM) of over 100 nM. It also gave an IC50 (second compound 1 µM) of over 100 nM, an IC50 (second compound 3.16 µM) of over 100 nM and an IC50 (second compound 10 µM) of over 100 nM. The viability, T/C [1] was 88.3%, the viability, T/C [2] was 94.7% and the viability, T/C [3] was 86.8%. The viability, T/C [4] was 100%, the viability, T/C [5] was 104% and the viability, T/C [6] was 88.9%. The viability, T/C [7] was 93.2%, the viability, T/C [8] was 111% and the viability, T/C [9] was 94.9%. It also gave a viability, T/C [10] of 103%, a viability, T/C [11] of 99.9% and a viability, T/C [12] of 99.3%. For the same compound, the viability, T/C [13] was 93.5%, the viability, T/C [14] was 107% and the viability, T/C [15] was 96.1%. For the same compound, the viability, T/C [16] was 92.5%, the viability, T/C [17] was 91.3% and the viability, T/C [18] was 85%. For the same compound, the viability, T/C [19] was 89.3%, the viability, T/C [20] was 95.5% and the viability, T/C [21] was 114%. The viability, T/C [22] was 97.4%, the viability, T/C [23] was 87% and the viability, T/C [24] was 84.4%. It also gave a viability, T/C (second compound 3.16 µM, first compound 0.000316 µM) of 108%, a viability, T/C (second compound 3.16 µM, first compound 0.001 µM) of 107% and a viability, T/C (second compound 3.16 µM, first compound 0.00316 µM) of 102%. The viability, T/C (second compound 3.16 µM, first compound 0.01 µM) was 84.5%, the viability, T/C [25] was 101% and the viability, T/C [26] was 99.1%. It also gave a viability, T/C (second compound 10 µM, first compound 0.000316 µM) of 99.6%, a viability, T/C (second compound 10 µM, first compound 0.001 µM) of 90.6% and a viability, T/C (second compound 10 µM, first compound 0.00316 µM) of 84.4%. The viability, T/C (second compound 10 µM, first compound 0.01 µM) was 86%, the viability, T/C [27] was 88.6% and the viability, T/C [28] was 85%.
